# ChEMBL document CHEMBL5096234, “Discovery, Optimization, and Evaluation of Selective CDK4/6 Inhibitors for the Treatment of Breast Cancer” (J Med Chem, 2022)
# How the values were obtained:
# [1] = biological target: CDK6/cyclin D1 (Homo sapiens, UniProt Q00534); assay: Inhibition of CDK6/cyclin-D1 (unknown origin) in presence of ATP by time resolved-FRET assay; assay type: protein-complex assay
# [2] = biological target: CDK9/cyclin T1 (Homo sapiens, UniProt P50750); assay: Inhibition of CDK9/Cyclin T1 (unknown origin) in presence of ATP by time resolved-FRET assay; assay type: protein-complex assay
# CDK9/cyclin T1, sequence (O60563 whole entry): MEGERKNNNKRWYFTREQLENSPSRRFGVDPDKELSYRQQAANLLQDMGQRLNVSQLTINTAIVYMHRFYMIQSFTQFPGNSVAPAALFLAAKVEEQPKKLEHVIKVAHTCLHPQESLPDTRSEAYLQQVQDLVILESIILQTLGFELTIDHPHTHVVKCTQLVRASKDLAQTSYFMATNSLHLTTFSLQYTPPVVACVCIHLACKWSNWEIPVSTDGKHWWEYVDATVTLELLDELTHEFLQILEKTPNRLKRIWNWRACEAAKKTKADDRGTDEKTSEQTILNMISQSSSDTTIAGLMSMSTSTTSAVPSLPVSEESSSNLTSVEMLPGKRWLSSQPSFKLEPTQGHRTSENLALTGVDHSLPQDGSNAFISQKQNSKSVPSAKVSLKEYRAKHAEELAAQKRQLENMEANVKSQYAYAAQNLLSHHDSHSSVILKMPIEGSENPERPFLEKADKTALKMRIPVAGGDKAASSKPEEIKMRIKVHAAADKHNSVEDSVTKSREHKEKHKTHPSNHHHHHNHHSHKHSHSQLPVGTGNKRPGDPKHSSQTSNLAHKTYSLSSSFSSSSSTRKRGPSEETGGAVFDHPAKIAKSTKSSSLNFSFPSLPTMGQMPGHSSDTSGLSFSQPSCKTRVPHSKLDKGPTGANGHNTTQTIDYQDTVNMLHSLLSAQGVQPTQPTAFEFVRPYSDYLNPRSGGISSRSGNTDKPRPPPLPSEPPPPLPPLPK
# CDK9/cyclin T1, sequence (P50750 whole entry): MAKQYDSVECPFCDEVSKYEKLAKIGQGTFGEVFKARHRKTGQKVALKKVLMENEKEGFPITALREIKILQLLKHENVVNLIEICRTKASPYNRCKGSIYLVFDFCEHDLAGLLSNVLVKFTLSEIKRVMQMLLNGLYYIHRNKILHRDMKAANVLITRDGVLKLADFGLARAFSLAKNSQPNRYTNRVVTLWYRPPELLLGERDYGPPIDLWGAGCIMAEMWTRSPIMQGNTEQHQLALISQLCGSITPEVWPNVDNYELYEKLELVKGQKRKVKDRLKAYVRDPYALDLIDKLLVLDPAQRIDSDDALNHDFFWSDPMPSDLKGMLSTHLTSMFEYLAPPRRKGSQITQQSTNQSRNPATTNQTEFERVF
# [3] = system: MCF7; assay: Antiproliferative activity against human MCF7 cells assessed as cell growth inhibition incubated for 72 hrs by CCK-8 assay; assay type: functional
# [4] = biological target: CDK4/Cyclin D3 (Homo sapiens, UniProt P11802); assay: Inhibition of CDK4/cyclin-D3 (unknown origin) in presence of ATP by time resolved-FRET assay; assay type: protein-complex assay
# CDK4/Cyclin D3, sequence (P11802 whole entry): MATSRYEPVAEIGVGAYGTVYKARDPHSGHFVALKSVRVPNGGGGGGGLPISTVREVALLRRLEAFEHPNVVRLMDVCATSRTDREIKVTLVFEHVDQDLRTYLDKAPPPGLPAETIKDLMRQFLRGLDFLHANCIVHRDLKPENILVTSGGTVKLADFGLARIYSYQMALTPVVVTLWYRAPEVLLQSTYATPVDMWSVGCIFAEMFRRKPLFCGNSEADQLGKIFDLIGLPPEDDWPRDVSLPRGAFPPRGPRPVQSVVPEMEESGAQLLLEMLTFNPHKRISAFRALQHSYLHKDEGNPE
# CDK4/Cyclin D3, sequence (P30281 whole entry, further chain): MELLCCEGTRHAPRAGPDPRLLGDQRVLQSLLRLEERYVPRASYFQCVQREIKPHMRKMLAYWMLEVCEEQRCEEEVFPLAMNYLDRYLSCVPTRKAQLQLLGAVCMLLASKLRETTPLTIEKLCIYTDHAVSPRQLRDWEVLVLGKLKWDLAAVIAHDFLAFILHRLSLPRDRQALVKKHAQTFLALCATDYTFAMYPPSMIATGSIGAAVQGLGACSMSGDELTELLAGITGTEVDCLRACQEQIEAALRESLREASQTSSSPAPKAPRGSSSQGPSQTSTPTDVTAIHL
# [5] = biological target: CDK7/Cyclin H/MNAT1 (Homo sapiens, UniProt P50613); assay: Inhibition of CDK7/cyclin H/MAT1 (unknown origin) in presence of ATP by time resolved-FRET assay; assay type: protein-complex assay
# CDK7/Cyclin H/MNAT1, sequence (P51946 whole entry): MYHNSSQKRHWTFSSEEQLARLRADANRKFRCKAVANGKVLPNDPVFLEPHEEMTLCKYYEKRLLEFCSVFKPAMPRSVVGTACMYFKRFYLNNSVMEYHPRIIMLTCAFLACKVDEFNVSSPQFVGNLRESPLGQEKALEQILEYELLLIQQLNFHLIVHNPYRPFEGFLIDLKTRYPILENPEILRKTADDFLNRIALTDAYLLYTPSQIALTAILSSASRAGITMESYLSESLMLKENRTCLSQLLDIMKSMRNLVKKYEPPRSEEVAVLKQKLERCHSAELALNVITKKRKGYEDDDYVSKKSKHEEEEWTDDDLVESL
# CDK7/Cyclin H/MNAT1, sequence (P50613 whole entry): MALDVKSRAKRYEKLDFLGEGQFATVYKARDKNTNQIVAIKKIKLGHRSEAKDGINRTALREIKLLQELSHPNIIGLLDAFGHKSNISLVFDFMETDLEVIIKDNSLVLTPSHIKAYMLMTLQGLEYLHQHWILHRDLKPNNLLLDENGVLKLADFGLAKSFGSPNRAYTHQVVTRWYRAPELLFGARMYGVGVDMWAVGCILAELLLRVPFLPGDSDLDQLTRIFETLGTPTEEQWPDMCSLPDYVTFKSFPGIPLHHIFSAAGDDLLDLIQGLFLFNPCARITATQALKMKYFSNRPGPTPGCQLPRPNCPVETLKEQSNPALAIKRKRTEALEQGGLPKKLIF
# CDK7/Cyclin H/MNAT1, sequence (P51948 whole entry, further chain): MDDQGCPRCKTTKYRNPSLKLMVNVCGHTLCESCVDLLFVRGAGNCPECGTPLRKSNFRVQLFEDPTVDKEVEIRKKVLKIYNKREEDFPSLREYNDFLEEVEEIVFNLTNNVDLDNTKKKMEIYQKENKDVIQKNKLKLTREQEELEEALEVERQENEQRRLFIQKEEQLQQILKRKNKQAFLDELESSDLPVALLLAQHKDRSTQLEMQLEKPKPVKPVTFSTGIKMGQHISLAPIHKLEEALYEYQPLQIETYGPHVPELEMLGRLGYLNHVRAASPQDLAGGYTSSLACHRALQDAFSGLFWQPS
# [6] = Inhibition of CDK1/cyclin B (unknown origin) in presence of ATP by time resolved-FRET assay; set-up: species or system Homo sapiens
# [7] = biological target: CDK2/Cyclin A2 (Homo sapiens, UniProt P24941); assay: Inhibition of CDK2/Cyclin A (unknown origin) in presence of ATP by time resolved-FRET assay; assay type: protein-complex assay
# [8] = system: T47D; assay: Induction of cell cycle arrest in human T47D cells assessed as accumulation of cells at G2 phase at 1.5 uM incubated for 24 hrs by propidium iodide staining based flow cytometry analysis (reference value: 16.57%); assay type: functional
# [9] = system: MCF-10A; assay: Antiproliferative activity against human MCF-10A cells assessed as cell growth inhibition incubated for 72 hrs by CCK-8 assay; assay type: functional
# [10] = system: MCF7; assay: Induction of cell cycle arrest in human MCF7 cells assessed as accumulation of cells at G1 phase at 1.5 uM incubated for 24 hrs by propidium iodide staining based flow cytometry analysis (reference value: 57.38%); assay type: functional
# [11] = system: MCF7; assay: Induction of cell cycle arrest in human MCF7 cells assessed as accumulation of cells at G2 phase at 1.5 uM incubated for 24 hrs by propidium iodide staining based flow cytometry analysis (reference value: 29.66%); assay type: functional
# [12] = system: T47D; assay: Induction of cell cycle arrest in human T47D cells assessed as accumulation of cells at G1 phase at 1.5 uM incubated for 24 hrs by propidium iodide staining based flow cytometry analysis (reference value: 69.55 %); assay type: functional
# [13] = system: T47D; assay: Antiproliferative activity against human T47D cells assessed as cell growth inhibition incubated for 72 hrs by CCK-8 assay; assay type: functional
# [14] = system: MCF7; assay: Induction of cell cycle arrest in human MCF7 cells assessed as accumulation of cells at G1 phase at 2.5 uM incubated for 24 hrs by propidium iodide staining based flow cytometry analysis (reference value: 57.38%); assay type: functional
# [15] = system: MCF7; assay: Induction of cell cycle arrest in human MCF7 cells assessed as accumulation of cells at G2 phase at 2.5 uM incubated for 24 hrs by propidium iodide staining based flow cytometry analysis (reference value: 29.66%); assay type: functional
# [16] = system: ZR-75-1; assay: Antiproliferative activity against human ZR-75-1 cells assessed as cell growth inhibition incubated for 72 hrs by CCK-8 assay; assay type: functional
# CDK6/cyclin D1, sequence (P24385 whole entry): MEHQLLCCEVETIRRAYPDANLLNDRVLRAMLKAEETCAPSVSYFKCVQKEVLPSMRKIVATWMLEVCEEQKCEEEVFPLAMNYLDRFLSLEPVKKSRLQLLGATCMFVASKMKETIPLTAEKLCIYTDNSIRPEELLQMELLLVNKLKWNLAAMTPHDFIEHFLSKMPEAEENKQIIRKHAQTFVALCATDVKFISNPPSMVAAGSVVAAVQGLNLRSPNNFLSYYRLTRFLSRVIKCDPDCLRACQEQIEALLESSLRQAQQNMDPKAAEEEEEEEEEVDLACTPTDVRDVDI
# CDK6/cyclin D1, sequence (Q00534 whole entry): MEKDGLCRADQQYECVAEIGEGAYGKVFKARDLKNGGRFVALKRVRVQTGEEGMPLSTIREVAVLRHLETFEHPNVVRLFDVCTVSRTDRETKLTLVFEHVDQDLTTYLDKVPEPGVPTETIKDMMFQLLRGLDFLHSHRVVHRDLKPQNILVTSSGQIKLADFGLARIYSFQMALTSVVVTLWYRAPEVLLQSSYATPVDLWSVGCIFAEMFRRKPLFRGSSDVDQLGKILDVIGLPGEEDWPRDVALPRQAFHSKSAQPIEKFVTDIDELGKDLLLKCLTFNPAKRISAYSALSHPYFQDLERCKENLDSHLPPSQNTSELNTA
structure (smiles),measurement,setting,value
O=C1NCCc2cc(-c3nc(Nc4ccc(N5CCNCC5)cn4)ncc3F)ccc21,IC50,[1],36 nM
same,IC50,[2],382 nM
same,GI50,[3],2900 nM
same,IC50,[4],8 nM
same,IC50,[5],8240 nM
same,IC50,[6],148 nM
same,IC50,[7],175 nM
CCN1CCN(C(=O)c2ccc(Nc3ncc(F)c(-c4ccc5c(c4)CCC(=O)N5C(C)C)n3)nc2)CC1,IC50,[1],3720 nM
Fc1cnc(Nc2ccc(CN3CCNCC3)cn2)nc1-c1ccc2c(c1)OCCO2,IC50,[1],136 nM
CC(C)N1CCN(Cc2ccc(Nc3ncc(F)c(-c4ccc5c(c4)CCN(C(C)C)C5=O)n3)nc2)CC1,IC50,[1],640 nM
CCN1CCN(C(=O)c2ccc(Nc3ncc(F)c(-c4ccc5c(c4)OCCC5=O)n3)nc2)CC1,IC50,[1],336 nM
CC(C)N1CCN(C(=O)c2ccc(Nc3ncc(F)c(-c4ccc5c(c4)OCCC5=O)n3)nc2)CC1,IC50,[1],364 nM
CCN1CCN(C(=O)c2ccc(Nc3ncc(F)c(-c4ccc5c(c4)CCN(C(C)C)C5=O)n3)nc2)CC1,IC50,[1],317 nM
CC(C)(C)OC(=O)N1CCN(Cc2ccc(Nc3ncc(F)c(-c4ccc5c(c4)OCCO5)n3)nc2)CC1,IC50,[1],> 10000 nM
CC(C)N1CCN(C(=O)c2ccc(Nc3ncc(F)c(-c4ccc5c(c4)OCO5)n3)nc2)CC1,IC50,[1],296 nM
CCN1CCN(C(=O)c2ccc(Nc3ncc(F)c(-c4ccc5c(c4)CCNC5=O)n3)nc2)CC1,IC50,[1],60 nM
same,GI50,[3],3240 nM
same,IC50,[4],21 nM
CC(C)N1CCN(C(=O)c2ccc(Nc3ncc(F)c(-c4ccc5c(c4)OCCO5)n3)nc2)CC1,IC50,[1],105 nM
CCN1CCN(C(=O)c2ccc(Nc3ncc(F)c(-c4ccc5c(c4)OCCO5)n3)nc2)CC1,IC50,[1],112 nM
CN1CCN(c2ccc(Nc3ncc(F)c(-c4ccc5c(c4)OCO5)n3)nc2)CC1,IC50,[1],1140 nM
CC(C)N1CCc2cc(-c3nc(Nc4ccc(N5CCNCC5)cn4)ncc3F)ccc2C1=O,IC50,[1],42 nM
same,IC50,[2],1960 nM
same,GI50,[3],3070 nM
same,IC50,[4],14 nM
same,IC50,[5],8720 nM
same,IC50,[6],6960 nM
same,IC50,[7],495 nM
Fc1cnc(Nc2ccc(N3CCNCC3)cn2)nc1-c1ccc2c(c1)OCCO2,IC50,[1],81 nM
same,GI50,[3],3760 nM
same,IC50,[4],36 nM
CC(C)(C)OC(=O)N1CCN(c2ccc(Nc3ncc(F)c(-c4ccc5c(c4)OCCO5)n3)nc2)CC1,IC50,[1],> 10000 nM
O=C(c1ccc(Nc2ncc(F)c(-c3ccc4c(c3)OCCO4)n2)nc1)N1CCNCC1,IC50,[1],117 nM
CC(C)(C)OC(=O)N1CCN(C(=O)c2ccc(Nc3ncc(F)c(-c4ccc5c(c4)OCCO5)n3)nc2)CC1,IC50,[1],> 10000 nM
CC(C)(C)OC(=O)N1CCN(c2ccc(Nc3ncc(F)c(-c4ccc5c(c4)OCO5)n3)nc2)CC1,IC50,[1],> 10000 nM
CN1CCN(c2ccc(Nc3ncc(F)c(-c4ccc5c(c4)OCCO5)n3)nc2)CC1,IC50,[1],660 nM
CC(C)N1CCN(Cc2ccc(Nc3ncc(F)c(-c4ccc5c(c4)CCC(=O)N5C(C)C)n3)nc2)CC1,IC50,[1],> 1000 nM
CCN1CCN(Cc2ccc(Nc3ncc(F)c(-c4ccc5c(c4)OCO5)n3)nc2)CC1,IC50,[1],254 nM
CC(C)N1CCN(C(=O)c2ccc(Nc3ncc(F)c(-c4ccc5c(c4)CCC(=O)N5C(C)C)n3)nc2)CC1,IC50,[1],> 1000 nM
CCN1CCN(Cc2ccc(Nc3ncc(F)c(-c4cc(F)c5nc(C)n(C(C)C)c5c4)n3)nc2)CC1 [ABEMACICLIB],Activity,[8],9.32%
same,GI50,[3],832 nM
same,GI50,[9],5090 nM
same,Activity,[10],77.44%
same,Activity,[11],17.65%
same,Activity,[12],81.8%
same,GI50,[13],771 nM
Fc1cnc(Nc2ccc(N3CCNCC3)cn2)nc1-c1ccc2c(c1)OCO2,IC50,[1],120 nM
CCN1CCN(C(=O)c2ccc(Nc3ncc(F)c(-c4ccc5c(c4)OCO5)n3)nc2)CC1,IC50,[1],333 nM
CCN1CCN(Cc2ccc(Nc3ncc(F)c(-c4ccc5c(c4)OCCO5)n3)nc2)CC1,IC50,[1],97 nM
same,GI50,[3],4710 nM
same,IC50,[4],80 nM
CC(=O)c1c(C)c2cnc(Nc3ccc(N4CCNCC4)cn3)nc2n(C2CCCC2)c1=O [PALBOCICLIB],Activity,[14],81.49%
same,Activity,[8],6.13%
same,Activity,[15],14.51%
same,GI50,[3],3940 nM
same,GI50,[9],19100 nM
same,GI50,[16],2280 nM
same,Activity,[12],84.74%
same,GI50,[13],1060 nM
CN1CCc2cc(-c3nc(Nc4ccc(N5CCNCC5)cn4)ncc3F)ccc2C1=O,IC50,[1],32 nM
same,IC50,[2],1040 nM
same,GI50,[3],2970 nM
same,IC50,[4],3 nM
same,IC50,[5],> 10000 nM
same,IC50,[6],1210 nM
same,IC50,[7],676 nM
CC(C)N1CCN(Cc2ccc(Nc3ncc(F)c(-c4ccc5c(c4)OCCO5)n3)nc2)CC1,IC50,[1],138 nM
